# Laboratory results: patent US9018383B2, “Acylamino-substituted cyclic carboxylic acid derivatives and their use as pharmaceuticals” (Sanofi, priority 2009, dated 2015)
# Target: human Edg-2 receptor (Homo sapiens, UniProt Q92633)
# Experiment: Determination of Edg-2 receptor inhibition by FLIPR measurements (LPA-mediated calcium liberation)
# Type: cell-based
# Conditions: CHO cells overexpressing human Edg-2 receptor, LPA 100 nM, fluo-4 calcium fluorescence; read-out: Inhibitory concentrations IC50 for inhibition of the Edg-2 receptor
# Procedure, shortened: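 CHO cells stably overexpressing human Edg-2, loaded with fluo-4 AM, were pre-incubated ~5 min with compound (≤0.3% DMSO), then stimulated with 100 nM LPA 18:1 in HBSS/HEPES/probenecid, pH 7.5. Peak calcium fluorescence over ~3 min, baseline-corrected, versus DMSO gave % inhibition; IC50 from triplicates.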
# human Edg-2 receptor, sequence (Q92633 whole entry): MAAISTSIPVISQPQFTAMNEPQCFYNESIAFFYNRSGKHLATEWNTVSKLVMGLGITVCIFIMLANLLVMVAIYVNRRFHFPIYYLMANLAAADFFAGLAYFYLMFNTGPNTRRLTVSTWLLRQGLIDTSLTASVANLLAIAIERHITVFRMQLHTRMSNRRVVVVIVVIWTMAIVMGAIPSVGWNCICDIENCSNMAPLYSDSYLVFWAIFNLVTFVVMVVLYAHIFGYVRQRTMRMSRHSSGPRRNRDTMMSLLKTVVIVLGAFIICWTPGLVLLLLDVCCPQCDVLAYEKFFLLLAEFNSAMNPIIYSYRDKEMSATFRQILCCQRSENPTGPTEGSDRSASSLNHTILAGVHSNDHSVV
row,IC50,Compound
1,< 100 nM,"CC[C@H]1CC[C@](NC(=O)c2cnc(OC)c(-c3ccc(F)c(F)c3)c2)(C(=O)O)CC1 [Example 359, cis-1-{[5-(3,4-Difluoro-phenyl)-6-methoxy-pyridine-3-carbonyl]-amino}-4-ethyl-cyclohexanecarboxylic acid]"
2,< 100 nM,"CC[C@H]1CC[C@](NC(=O)c2cnc(OC)c(-c3cc(F)cc(F)c3)c2)(C(=O)O)CC1 [Example 360, cis-1-{[5-(3,5-Difluoro-phenyl)-6-methoxy-pyridine-3-carbonyl]-amino}-4-ethyl-cyclohexanecarboxylic acid]"
3,< 100 nM,"CC[C@@H]1C[C@]1(NC(=O)c1cnc(OC)c(OCCc2cccc(Cl)c2)c1)C(=O)O [Example 361, (1R,2R)-1-({5-[2-(3-Chloro-phenyl)-ethoxy]-6-methoxy-pyridine-3-carbonyl}-amino)-2-ethyl-cyclopropanecarboxylic acid]"
4,< 100 nM,"CC[C@H]1CC[C@@](NC(=O)c2cc(F)c(OCCO)c(-c3cccc(C(F)(F)F)c3)c2)(C(=O)O)CC1 [Example 362, trans-4-Ethyl-1-{[5-fluoro-6-(2-hydroxy-ethoxy)-3′-trifluoromethyl-biphenyl-3-carbonyl]-amino}-cyclohexanecarboxylic acid]"
5,100 to 1000 nM,COc1ccc(C(=O)NC2(C(=O)O)CCCCCC2)cc1OCCc1cccc(C(F)(F)F)c1 [Example 363]
6,< 100 nM,COc1ccc(C(=O)NC2(C(=O)O)CCCCCC2)cc1OCCc1ccccc1Cl [Example 364]
7,100 to 1000 nM,COc1ccc(C(=O)NC2(C(=O)O)CCCCCC2)cc1OCCc1cccc(F)c1 [Example 365]
8,100 to 1000 nM,COc1ccc(C(=O)NC2(C(=O)O)CCC(C(C)(C)C)CC2)cc1OCCc1cccc(C)c1 (stereo not shown) [Example 366]
9,100 to 1000 nM,COc1ccc(C(=O)NC2(C(=O)O)CCCC(C)C2)cc1OCCc1cccc(C)c1 (stereo not shown) [Example 367]
10,100 to 1000 nM,COc1ccc(C(=O)NC2(C(=O)O)CC2)cc1OCCc1cccc(C)c1 [Example 368]
11,100 to 1000 nM,COc1ccc(C(=O)NC2(C(=O)O)CCC(C(F)(F)F)CC2)cc1OCCc1cccc(C)c1 (stereo not shown) [Example 369]
12,< 100 nM,COc1ccc(C(=O)NC2(C(=O)O)CCC(C(C)C)CC2)cc1OCCc1cccc(C)c1 (stereo not shown) [Example 370]
13,100 to 1000 nM,COc1ccc(C(=O)NC2(C(=O)O)CCC(C(C)(C)C)CC2)cc1OCCc1cccc(C)c1 (stereo not shown) [Example 371]
14,100 to 1000 nM,COc1ccc(C(=O)NC2(C(=O)O)CCCC(C)C2)cc1OCCc1cccc(C)c1 (stereo not shown) [Example 372]
15,100 to 1000 nM,COc1ccc(C(=O)NC2(C(=O)O)CCC(C)C2)cc1OCCc1cccc(C)c1 (stereo not shown) [Example 373]
16,< 100 nM,COc1ccc(C(=O)NC2(C(=O)O)CCC(OC)CC2)cc1OCCc1cccc(C)c1 (stereo not shown) [Example 374]
17,< 100 nM,COc1ncc(C(=O)N[C@]2(C(=O)O)CC[C@H](C(F)(F)F)CC2)cc1-c1cc(F)c(F)c(F)c1 [Example 375]
18,< 100 nM,COc1ncc(C(=O)N[C@]2(C(=O)O)CC[C@H](C(F)(F)F)CC2)cc1-c1cccc(C(F)(F)F)c1 [Example 376]
19,< 100 nM,COc1ncc(C(=O)N[C@]2(C(=O)O)CC[C@H](C(F)(F)F)CC2)cc1-c1cccc(C(F)(F)F)c1F [Example 377]
20,< 100 nM,COc1ncc(C(=O)N[C@]2(C(=O)O)CC[C@H](C(F)(F)F)CC2)cc1-c1cccc(Cl)c1Cl [Example 378]
21,< 100 nM,COc1ncc(C(=O)N[C@]2(C(=O)O)CC[C@H](C(F)(F)F)CC2)cc1-c1cccc(OC(F)(F)F)c1 [Example 379]
22,< 100 nM,COc1ncc(C(=O)N[C@]2(C(=O)O)CC[C@H](C(F)(F)F)CC2)cc1-c1cc(Cl)cc(C(F)(F)F)c1 [Example 380]
23,< 100 nM,CC[C@H]1CC[C@](NC(=O)c2cc(F)c(OCCO)c(-c3ccc(OC)c(Cl)c3)c2)(C(=O)O)CC1 [Example 381]
24,< 100 nM,CC[C@H]1CC[C@](NC(=O)c2cc(F)c(OCCO)c(-c3cccc(OC(F)(F)F)c3)c2)(C(=O)O)CC1 [Example 382]
25,< 100 nM,CC[C@H]1CC[C@](NC(=O)c2cc(F)c(OCCO)c(-c3ccc(F)c(F)c3)c2)(C(=O)O)CC1 [Example 384]
